Measured values: patent publication US6492427B2, “Methods for treating multiple sclerosis” (priority 1998, dated 2002)
“Also recorded” adds a separate entry of the source. *1 amine or outer side, *2 acyl side, *3 side chain or, on linkers, in order; H or OH if unused. Where a SMILES comes first, the peptide text is derived from it. Bridges are numbered along the chain shown (N, C = ends). Roman numbers before positions name the chains, in order. [ ]: non-standard residue; d: D form. Actinocin(9to1) = Cc1c2oc3c(C)ccc(C(=O)[*:1])c3nc-2c(C(=O)[*:2])c(N)c1=O; NMeV = CN[C@H](C(=O)O)C(C)C; Sar = CNCC(=O)O

Tests used:
Assay type in all cases: cell-based, rat
[1] = system: oligodendroglial cells; assay: Nuclear integrity assay: counts of intact nuclei (Zap-oglobin lysis) after insulin and IGF-I withdrawal; conditions: for numbers of intact nuclei for IGF-I and insulin withdrawn cells: alone in BM, actinomycin 1, 2.5, 5 μg/ml, cycloheximide 1, 5, 10, 50 μg/ml; for counts of intact nuclei compared to BM: alone in BM at 10^−5, 10^−7 and 10^−9 M
Method: In order to examine insulin and IGF-I dependent survival of the cells of the oligodendroglial lineage, cells were trophically deprived for a period of 24 hours at 16 DIV.
Cells were trophically withdrawn by replacing the media with a serum free, chemically-defined base media (BM) lacking insulin and IGF-I (Bottenstein et al., 1988). The base media consisited of DMEM supplemented with penicillin (50 IU/ml); streptomycin (50 μg/ml); 1 mM sodium pyruvate; 50 μg/ml transferrin; 0.005 μg/ml sodium selenite; 16 μg/ml putrescine; 0.006 μg/ml progesterone and 0.1 mg/ml bovine serum albumin. All the cells were washed with BM twice before exposing them to individual treatment conditions. Control cells were washed and placed in BM supplemented with 2.5 ng/ml IGF-I and 5 μg/ml insulin to form the insulin media (IM).
Cell survival in the cultures was assessed according to the method of (Soto and Sonnenschein, 1985). After washing and treatment in BM, BM-D9, IM and IM-D9 for 24 h, cells were harvested, centrifuged at 500 rpm for 5 min and the supernatant removed. Pelleted cells were then lysed with 200 μl of 10% Zap-oglobin (Coulter Electronics, FL, USA). The lysing agent is a detergent containing solution that lyses the plasma membrane but leaves the nuclei intact. The lysed solution was collected and vortexed. A small volume (10 μl) of the solution was removed and intact nuclei were counted using a haemocytometer. To be counted, nuclei had to show a completely intact smooth outer border. Counts of intact nuclei were pooled for three or four experiments (a total of 15-20 wells were used for each treatment condition). each treatment condition).
OLs at 16 DIV were exposed to the different drug treatment conditions for 24 h, following which, the nuclear integrity assay was performed. On the day of the treatment, the cells growing in Nunc 24 well plates were washed twice with base media. Each treatment well received 50 μl of the appropriate drug solution and the total volume in the well was made up to 500 μl with either BM or IM.
Nuclear counts were obtained from quadruplicate wells per treatment condition and the experiment was repeated twice. OLs were exposed to the following treatment conditions: 1) IM, 2) BM, 3) BM-D9, 4) (−)-Desmethyldeprenyl (BM-Ds9), 5) IM-D9 and 6) IM +10^−9 M (−)-Desmethyldeprenyl (IM-Ds9).
The treatment conditions with the three general cytochrome P450 blockers were: 1) BM+Proadifen (2.5, 10, 25 μM), 2) BM-D9+Proadifen (2.5, 10, 25 μM), 3) BM-Ds9+Proadifen (2.5, 10, 25 μM), 4) BM+Metapyrone (50 μM), 5) BM-D9+Metapyrone (50 μM), 6) BM-Ds9+Metapyrone (50 μM), 7) BM+Piperonyl butoxide (100 μM), 5) BM-D9+Piperonyl butoxide (100 μM), 6) BM-Ds9+Piperonyl butoxide (100 μM).
OLs at 16 DIV were washed twice with base media and exposed either to actinomycin, a transcriptional blocker or cycloheximide, a translational blocker for 24 h. […] Actinomycin and cycloheximide were either used with base media alone or in combination with 10^−9 M (−)-desmethyldeprenyl. Each treatment well received 50 μl of the drug solution and the total volume of the well was made up to 500 μl with base media.
Counts of intact nuclei, obtained from quadruplicate wells per treatment condition were used to quantitate the effects of the transcriptional and translational blockers. Each experiment was repeated twice for experimental density series-II.

[2] = system: mitochondrial membrane potential (ΔψM) of oligodendroglial cells; assay: CMTMR estimation of mitochondrial membrane potential by confocal microscopy; parameters: ΔΨM (18 h): key to the marks not given beside the values; conditions: for increases in ΔψM induced by (−)-deprenyl on OL mitochondria: proadifen 10 μM, metyapone 50 μM or piperonyl butoxide 100 μM with 10^−9 M (−)-deprenyl in BM; for capacity of (−)-deprenyl and (−)-desmethyldeprenyl to maintain ΔψM in OL mitochondria: 10^−5 M with 10^−9 M (−)-deprenyl or (−)-desmethyldeprenyl in BM
Method: The ΔψM was assessed by the addition of a lipophilic, potentiometric dye, chloromethyl-tetramethylrhodamine methyl ester (CMTMR, Mitotracker Orange™ Molecular Probes, Eugene, Oreg.). The CMTMR dye reacts with the thiol groups on proteins and peptides to form aldehyde fixable conjugates. Entry of the negatively charged mitochondrial matrix compartment is proportional to the difference in the membrane potential. Therefore, the CMTMR fluorescence labels the mitochondrial membrane potential generated due to the negativity difference between the mitochondrial matrix and the outside of the mitochondria. Upon cell fixation, CMTMR remains in the mitochondria and is not washed out unlike other mitochondrial potentiometric dyes like rhodamine123.
Oligodendrocytes at 16 DIV were placed in trophically deprived BM for 18 h or treated with BM-D9 or BM-Ds9. […] The cells were incubated in CMTMR at 37° C. for 15 min. The cells were then fixed with 4% cold paraformaldehyde on ice for 30 min and washed twice with 0.1M PBS. Consequently, the coverslips were mounted on glass slides with Aquamount (Gurr, England).
Individual mitochondria labeled with CMTMR were resolved by confocal microscopy. A Leica true confocal scanning (TCS) 4D microscope coupled to an argon-krypton laser (Omnichrome, USA) was used for cell imaging. A pinhole size of 20 with an excitation filter wavelength of 568 nm and an emission filter wavelength of 590 nm was used to image the CMTMR labeled mitochondria. Each field of the coverslip was imaged using an oil-immersion, 100 X, 1.3 N.A. objective at 512 by 512 by 8 bits per pixel resolution, background offset of −1 and line averaged 32 times in bi-directional line scan mode. Care was taken not to exceed the dynamic range of the gray value display. The confocal images obtained were saved on an optical drive in a tagged image file format (TIFF).
Fluorescence intensity of individual mitochondria was measured using the Metamorph™ program. Metamorph™ compiles measurements of objects in a 8-bit image ranging from gray values 0 (background) and 255. In order to obtain fluorescence intensity measures, a rectangular region tool of 2×2 pixels was used to measure two randomly selected areas within each mitochondrion. A total of ten mitochondria obtained equally from all the regions of each cell were measured within each image. About 20 images were analyzed for each treatment condition thereby giving a sum of about 400 mitochondrial fluorescence intensity measures. The raw values were then further graphed and analyzed with the Microcal Origin 4.1 program. Frequency count was performed on the data, which classified the data in ordered bins. A frequency distribution was obtained with lower bin value set at 0 and higher bin value set at 260.

[3] = system: MBP, PLP, GC and CNPase-I; assay: Western blot of PROL and OL marker proteins; conditions: BM + 10^−9 M, 18 h

Cc1c2oc3c(C)ccc(C(=O)N[C@@H]4C(=O)N[C@H](C(C)C)C(=O)N5CCC[C@H]5C(=O)N(C)CC(=O)N(C)[C@@H](C(C)C)C(=O)O[C@@H]4C)c3nc-2c(C(=O)N[C@@H]2C(=O)N[C@H](C(C)C)C(=O)N3CCC[C@H]3C(=O)N(C)CC(=O)N(C)[C@@H](C(C)C)C(=O)O[C@@H]2C)c(N)c1=O [actinomycin] (I: T[dV]P[Sar][NMeV] / II: T[dV]P[Sar][NMeV]; ester I:1-I:C, II:1-II:C; linker I:N-II:N via Actinocin(9to1))
numbers of intact nuclei for IGF-I and insulin withdrawn cells ([1]; 24 h): Neither agent altered the numbers of intact nuclei

CCCC(C(=O)OCCN(CC)CC)(c1ccccc1)c1ccccc1 [proadifen]
increases in ΔψM induced by (−)-deprenyl on OL mitochondria ([2]; 18 h): blocked the increases in ΔψM induced by (−)-deprenyl
number of intact nuclei when compared to IM ([1]; proadifen 2.5 μM with 10^−9 M (−)-deprenyl in BM, 24 h): 144%
number of intact nuclei when compared to IM ([1]; proadifen 10 μM with 10^−9 M (−)-deprenyl in BM, 24 h): 109%
number of intact nuclei when compared to IM ([1]; proadifen 25 μM with 10^−9 M (−)-deprenyl in BM, 24 h): 91%
intact nuclei values for BM only ([1]; proadifen 2.5, 10, 25 μM alone in BM, 24 h): did alter the values for BM only
increase in intact nuclei induced by 10^−9 M (−)-desmethyldeprenyl ([1]; proadifen 2.5, 10, 25 μM with 10^−9 M (−)-desmethyldeprenyl in BM, 24 h): did not reduce the increase in intact nuclei

C[C@@H]1C[C@@H]([C@H](O)CC2CC(=O)NC(=O)C2)C(=O)[C@@H](C)C1 [cycloheximide]
numbers of intact nuclei for IGF-I and insulin withdrawn cells ([1]; 24 h): Neither agent altered the numbers of intact nuclei

CN[C@@H](C)Cc1ccccc1 [(−)-methamphetamine]
capacity of (−)-deprenyl and (−)-desmethyldeprenyl to maintain ΔψM in OL mitochondria ([2]; 18 h): reduce the capacity of (−)-deprenyl and (−)-desmethyldeprenyl to maintain ΔψM
increase in numbers of intact nuclei induced by (−)-deprenyl ([1]; 10^−5, 10^−7, 10^−9 M in combination with 10^−9 M (−)-deprenyl in BM, 24 h): significantly reduced the increase in numbers of intact nuclei induced by (−)-deprenyl in a graded concentration dependent manner
counts of intact nuclei compared to BM ([1]; 24 h): did alter the counts of intact nuclei

CC(N)Cc1ccccc1 (single isomer, unassigned; (-)) [(−)-amphetamine]
capacity of (−)-deprenyl and (−)-desmethyldeprenyl to maintain ΔψM in OL mitochondria ([2]; 18 h): reduce the capacity of (−)-deprenyl and (−)-desmethyldeprenyl to maintain ΔψM
capacity of (−)-deprenyl to increase survival of oligodendroglial cells ([1]; 10^−3, 10^−5, 10^−7, 10^−9 M in combination with 10^−9 M (−)-deprenyl in BM, 24 h): markedly reduced the capacity of (−)-deprenyl to increase the survival
capacity of 10^−9 M (−)-desmethyldeprenyl to increase survival of oligodendroglial cells ([1]; 10^−5 M with 10^−9 M (−)-desmethyldeprenyl in BM, 24 h): completely eliminated the capacity of 10^−9 M (−)-desmethyldeprenyl to increase the survival
counts of intact nuclei compared to BM ([1]; 24 h): did alter the counts of intact nuclei

C#CCN(C)C(C)Cc1ccccc1 (single isomer, unassigned; (+)) [(+)-deprenyl]
concentration-survival relationship, numbers of intact nuclei ([1]; BM with 10^−5, 10^−7 and 10^−9 M, 24 h): did not alter the numbers of intact nuclei from the values found for BM

CC(C)(C(=O)c1cccnc1)c1cccnc1 [metapyrone, 2-methyl-1,2-di(3-pyridyl)-1-propanone]
increases in ΔψM induced by (−)-deprenyl on OL mitochondria ([2]; 18 h): blocked the increases in ΔψM induced by (−)-deprenyl

C#CCN[C@H](C)Cc1ccccc1 [(−)-desmethyldeprenyl]
band densities for MBP, CNP-ase I and PLP compared to IM [3]: exceed those for IM
immunodensity of marker proteins (MBP, PLP, GC, CNPase-I) compared to BM [3]: marked increase in immunodensity compared to BM
mitochondrial CMTMR fluorescence distributions (ΔψM) in ASTs, PROLs and OLs ([2]; BM + 10^−9 M, 18 h): not significantly different to those found for IM; also recorded: prevented the decrease in ΔψM
ΔΨM (18 h) ([2]; OL, relative to control (IM)): ++++
increase in counts of intact nuclei compared to those for BM ([1]; BM + 10^−9 M, 24 h, metabolite experiments (FIG. 11)): 197%
numbers of intact nuclei relative to IM ([1]; IM + 10^−9 M, 24 h, metabolite experiments (FIG. 11)): 103%
Survival (24 h) ([1]; OL cell survival, relative to control (IM)): ++++
